Data reported in ChEMBL document CHEMBL4251690, “Histone Deacetylase Inhibitors as Treatment for Targeting Multiple Components in Cancer Therapy” (ACS Med Chem Lett, 2018).

Legend:
Format in all cases: cell-based
Histone deacetylase [1] = assay: Inhibition of HDAC in human HeLa cells using Boc-K(Ac)-AMC as substrate by fluorescence assay
Histone deacetylase [2] = assay: Inhibition of HDAC in human A549 cells using Boc-K(Ac)-AMC as substrate by fluorescence assay
Histone deacetylase [3] = assay: Inhibition of HDAC in human K562 cells using Boc-K(Ac)-AMC as substrate by fluorescence assay
[4] = molecular target: T1, Histone-lysine N-methyltransferase EHMT2 (Homo sapiens, UniProt Q96KQ7); assay: Inhibition of G9a in human MDA-MB-231 cells assessed as reduction in H3K9me2 level after 2 days by immunofluorescence in-cell western analysis
T1 sequence (Q96KQ7 whole entry): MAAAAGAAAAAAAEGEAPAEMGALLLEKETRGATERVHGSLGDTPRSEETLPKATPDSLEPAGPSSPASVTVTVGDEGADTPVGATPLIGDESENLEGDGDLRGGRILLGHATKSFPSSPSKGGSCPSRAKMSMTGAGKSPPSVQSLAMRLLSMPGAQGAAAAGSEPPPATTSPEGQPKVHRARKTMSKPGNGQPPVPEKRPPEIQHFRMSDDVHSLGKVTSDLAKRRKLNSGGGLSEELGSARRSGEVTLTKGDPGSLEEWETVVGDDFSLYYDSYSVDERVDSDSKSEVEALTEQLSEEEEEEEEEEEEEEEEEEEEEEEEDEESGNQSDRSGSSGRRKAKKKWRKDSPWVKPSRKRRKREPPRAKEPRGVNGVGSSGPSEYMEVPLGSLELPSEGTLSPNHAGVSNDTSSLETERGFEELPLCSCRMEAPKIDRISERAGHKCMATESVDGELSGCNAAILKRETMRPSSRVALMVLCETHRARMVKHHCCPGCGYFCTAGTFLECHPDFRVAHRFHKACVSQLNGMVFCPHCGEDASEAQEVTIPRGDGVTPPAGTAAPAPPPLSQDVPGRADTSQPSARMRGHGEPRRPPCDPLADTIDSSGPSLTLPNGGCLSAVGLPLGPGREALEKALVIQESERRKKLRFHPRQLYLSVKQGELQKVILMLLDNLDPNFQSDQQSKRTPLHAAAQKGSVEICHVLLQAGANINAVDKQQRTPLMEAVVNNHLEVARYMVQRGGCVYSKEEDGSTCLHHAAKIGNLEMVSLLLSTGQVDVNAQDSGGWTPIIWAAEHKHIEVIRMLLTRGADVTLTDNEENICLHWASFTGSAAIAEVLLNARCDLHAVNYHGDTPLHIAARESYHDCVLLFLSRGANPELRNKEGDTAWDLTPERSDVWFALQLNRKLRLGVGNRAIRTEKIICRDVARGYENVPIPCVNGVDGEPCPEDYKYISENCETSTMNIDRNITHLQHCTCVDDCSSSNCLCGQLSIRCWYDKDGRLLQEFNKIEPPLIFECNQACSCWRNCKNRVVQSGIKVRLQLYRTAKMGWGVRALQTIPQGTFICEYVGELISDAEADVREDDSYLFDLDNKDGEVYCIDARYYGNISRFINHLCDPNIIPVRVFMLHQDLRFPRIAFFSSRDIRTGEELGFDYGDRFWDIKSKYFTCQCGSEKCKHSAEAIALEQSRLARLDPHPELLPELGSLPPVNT

| SMILES | IC50 (Histone deacetylase [1]) [µM] | IC50 (Histone deacetylase [2]) [µM] | IC50 (Histone deacetylase [3]) [µM] | IC50 [4] [µM] |
| --- | --- | --- | --- | --- |
| COc1ccc2c(NC3CCN(Cc4ccccc4)CC3)nc(NCCNC(=O)CCCCCCC(=O)NO)nc2c1 | 15.33 | > 100 | 27.75 | – |
| COc1ccc2c(NC3CCN(Cc4ccccc4)CC3)nc(NCCNC(=O)CCCCCC(=O)NO)nc2c1 | 13.8 | > 100 | 5.735 | – |
| COc1ccc2c(NCCNC(=O)CCCCCCC(=O)NO)nc(N3CCCN(C)CC3)nc2c1 | > 100 | > 100 | > 100 | – |
| CNC(=O)CCCCC(=O)NCCNc1nc(NC2CCN(C)CC2)c2ccc(OC)cc2n1 | – | – | – | 47 |
